In PubChem BioAssay AID330 (DTP/NCI, 2004):
“And” between values parts separate entries of the source, which are not always exact repeats. Equal entries are not always repeated. Toxic doses and inconclusive results are not listed. How the source made its calls: active means survival T/C of 150% or more; inactive means T/C below 125% in these data.

Tested on: P388 leukemia ip, CD2F1 mice, survival T/C
Assay: NCI In Vivo Anticancer Drug Screen. Data for tumor model P388 Leukemia (intraperitoneal) in CD2F1 (CDF1) mice
Settings: endpoint: median survival time, higher = longer survival
How it was run: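 Mice carrying the transplanted tumor received test compound or vehicle. Survival was recorded in each group, and the value is the treated-group measurement divided by that of the vehicle-treated control group.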

[1] = dose: 50.0 mg/kg/injection, schedule: Q01DX009 (ip), vehicle: Klucel (hydroxypropylcellulose) (HPC)
[2] = dose: 50.0 mg/kg/injection, schedule: Q01DX009 (ip), vehicle: saline with Tween-80
[3] = dose: 100.0 mg/kg/injection, schedule: Q01DX009 (ip), vehicle: saline with Tween-80
[4] = dose: 200.0 mg/kg/injection, schedule: Q01DX009 (ip), vehicle: saline with Tween-80
[5] = dose: 50.0 mg/kg/injection, schedule: Q01DX005 (ip), vehicle: saline with Tween-80
[6] = dose: 100.0 mg/kg/injection, schedule: Q01DX005 (ip), vehicle: saline with Tween-80
[7] = dose: 200.0 mg/kg/injection, schedule: Q01DX005 (ip), vehicle: saline with Tween-80
[8] = dose: 25.0 mg/kg/injection, schedule: Q01DX009 (ip), vehicle: saline with Tween-80

Measured: T/C

C[N+](C)(C)C1(Cc2ccccc2)c2ccccc2-c2ccc(Cl)cc21 (stereo not given)
inactive: dose: 12.5 mg/kg/injection, schedule: Q01DX009 (ip), vehicle: Klucel (hydroxypropylcellulose) (HPC) 107 % of control | dose: 25.0 mg/kg/injection, schedule: Q01DX009 (ip), vehicle: Klucel (hydroxypropylcellulose) (HPC) 105 % of control | [1] 108 % of control and 94 % of control

O=c1[nH]nc(-c2ccccc2)c2nc3ccccc3n12
inactive: dose: 60.0 mg/kg/injection, schedule: Q01DX005 (ip), vehicle: Klucel (hydroxypropylcellulose) (HPC) 88 % of control | dose: 120.0 mg/kg/injection, schedule: Q01DX005 (ip), vehicle: Klucel (hydroxypropylcellulose) (HPC) 87 % of control | dose: 240.0 mg/kg/injection, schedule: Q01DX005 (ip), vehicle: Klucel (hydroxypropylcellulose) (HPC) 88 % of control

Cc1c(CCNC=O)cc(C)c2c3c(oc12)CCCC3
inactive: [2] 91 % of control | [3] 91 % of control | [4] 94 % of control | dose: 400.0 mg/kg/injection, schedule: Q01DX009 (ip), vehicle: saline with Tween-80 91 % of control

CCOC(=O)C(CCCOC1CCCCO1)(C(=O)CC)c1ccccc1 (stereo not given) (tested in a mixture with another compound)
inactive: dose: 50.0 mg/kg/injection, schedule: Q01DX009 (ip), vehicle: acetone 111 % of control | dose: 100.0 mg/kg/injection, schedule: Q01DX009 (ip), vehicle: acetone 103 % of control | dose: 200.0 mg/kg/injection, schedule: Q01DX009 (ip), vehicle: acetone 107 % of control

CCc1ccccc1NC(=O)NCC(C)C
inactive: [1] 105 % of control | dose: 100.0 mg/kg/injection, schedule: Q01DX009 (ip), vehicle: Klucel (hydroxypropylcellulose) (HPC) 97 % of control | dose: 200.0 mg/kg/injection, schedule: Q01DX009 (ip), vehicle: Klucel (hydroxypropylcellulose) (HPC) 105 % of control

CCn1c2ccccc2c2cc(NC(=O)N3CCCCC3)ccc21
inactive: [5] 95 % of control | [6] 95 % of control | [7] 90 % of control

Cc1ccc2cccc(OC(=O)Nc3cc(Cl)c(Cl)cc3Cl)c2n1
inactive: dose: 15.0 mg/kg/injection, schedule: Q01DX005 (ip), vehicle: saline with Tween-80 100 % of control | dose: 30.0 mg/kg/injection, schedule: Q01DX005 (ip), vehicle: saline with Tween-80 93 % of control | dose: 60.0 mg/kg/injection, schedule: Q01DX005 (ip), vehicle: saline with Tween-80 93 % of control | dose: 240.0 mg/kg/injection, schedule: Q01DX005 (ip), vehicle: saline with Tween-80 94 % of control

O=C(c1cc2c(cc1Br)OCO2)N1CCc2ccccc21
inactive: dose: 50.0 mg/kg/injection, schedule: Q01DX009 (ip), vehicle: other 93 % of control | dose: 100.0 mg/kg/injection, schedule: Q01DX009 (ip), vehicle: other 105 % of control | dose: 200.0 mg/kg/injection, schedule: Q01DX009 (ip), vehicle: other 109 % of control

O=[N+]([O-])c1ccc(/C=C/Sc2ccccc2)o1
inactive: dose: 50.0 mg/kg/injection, schedule: Q01DX009 (ip), vehicle: suspension in saline 99 % of control | dose: 100.0 mg/kg/injection, schedule: Q01DX009 (ip), vehicle: suspension in saline 98 % of control

CN(C)c1ccc(C=NCCC[Si]23OCCN(CCO2)CCO3)cc1
inactive: dose: 50.0 mg/kg/injection, schedule: Q01DX005 (ip), vehicle: Klucel (hydroxypropylcellulose) (HPC) 106 % of control | dose: 100.0 mg/kg/injection, schedule: Q01DX005 (ip), vehicle: Klucel (hydroxypropylcellulose) (HPC) 100 % of control | dose: 200.0 mg/kg/injection, schedule: Q01DX005 (ip), vehicle: Klucel (hydroxypropylcellulose) (HPC) 111 % of control

Cc1c(-c2ccncc2)nc2ccccc2c1C(=O)O
inactive: [5] 100 % of control | [6] 100 % of control | [7] 97 % of control

Cc1nc(=O)oc(NC(C)C)c1Cl
inactive: [8] 100 % of control and 107 % of control | [2] 106 % of control and 95 % of control | dose: 50.0 mg/kg/injection, schedule: Q01DX009 (ip), vehicle: saline 110 % of control | [3] 113 % of control and 97 % of control | dose: 100.0 mg/kg/injection, schedule: Q01DX009 (ip), vehicle: saline 103 % of control | [4] 99 % of control and 116 % of control

CN(C)c1ccc2[nH]c3c(C(=O)O)cc(=O)c(=O)c=3oc2c1
inactive: [5] 108 % of control | [6] 100 % of control

CCCCC(=O)NN
inactive: dose: 12.5 mg/kg/injection, schedule: Q01DX009 (ip), vehicle: saline with Tween-80 96 % of control | [8] 102 % of control | [2] 102 % of control
